From ChEMBL document CHEMBL1128769, “Structure-activity relationships of tricyclic quinoxalinediones as potent antagonists for the glycine binding site of the NMDA receptor 2” (Bioorg Med Chem Lett, 1995)

Key:
[1] = biological target: Glutamate receptor ionotropic, NMDA 1 (Rattus norvegicus) (UniProt P35439); experiment: Percent inhibition of [3H]- 5,7- dichloro -kynurenic acid binding to glycine binding site of NMDA receptor at 10 ng/mL
[2] = biological target: Glutamate receptor ionotropic, NMDA 1 (Rattus norvegicus, UniProt P35439); experiment: Affinity for the glycine binding site of the NMDA receptor using [3H]- 5,7- dichloro -kynurenic acid as radio-ligand
[3] = biological target: Glutamate receptor ionotropic, NMDA 1 (Rattus norvegicus) (UniProt P35439); experiment: Percent inhibition of binding affinity for the glycine binding site of the NMDA receptor using [3H]5,7- dichloro -kynurenic acid at a concentration of 10 ng/mL

| Structure (SMILES) | inhibition [1] | Ki [2] | inhibition [3] |
| --- | --- | --- | --- |
| O=C(O)CC1CCc2cc(I)cc3[nH]c(=O)c(=O)n1c23 (stereo not given) | 76.2% | 46.6 nM | – |
| CC(=O)Nc1ccc(NC(=O)CC2CCc3cc(Br)cc4[nH]c(=O)c(=O)n2c34)cc1 (stereo not given) | 73% | – | – |
| O=C(O)CC1CCc2cc(Cl)cc3[nH]c(=O)c(=O)n1c23 (stereo not given) | 90.3% | 5.1 nM | – |
| COc1ccc(NC(=O)CC2CCc3cc(Br)cc4[nH]c(=O)c(=O)n2c34)cc1 (stereo not given) | 67.5% | – | – |
| O=C(O)CC1CCc2cccc3[nH]c(=O)c(=O)n1c23 (stereo not given) | – | – | 30.3% |
| O=C(CC1CCc2cc(Cl)cc3[nH]c(=O)c(=O)n1c23)Nc1ccccc1 (stereo not given) | 79.3% | 6.6 nM | – |
| O=C(CC1CCc2cccc3[nH]c(=O)c(=O)n1c23)Nc1ccccc1 (stereo not given) | – | – | 52.7% |
| C[C@H]1Cc2cc(Cl)cc3[nH]c(=O)c(=O)n(c23)C1CC(=O)O (stereo not given in full) | – | 4.4 nM | – |
| O=C(CC1CCc2cc(Br)cc3[nH]c(=O)c(=O)n1c23)Nc1ccccc1 (stereo not given) | 92.9% | 2.6 nM | – |
| O=C(CC1CCc2cc(Br)cc3[nH]c(=O)c(=O)n1c23)NC1CCCCC1 (stereo not given) | 23.8% | – | – |
| O=C(CC1CCc2cc(Br)cc3[nH]c(=O)c(=O)n1c23)Nc1ccc(C(F)(F)F)cc1 (stereo not given) | 1% | – | – |
| O=C(CC1CCc2cc(I)cc3[nH]c(=O)c(=O)n1c23)Nc1ccccc1 (stereo not given) | 46.7% | 134 nM | – |
| Nc1ccc(NC(=O)CC2CCc3cc(Br)cc4[nH]c(=O)c(=O)n2c34)cc1 (stereo not given) | 76.4% | – | – |
| N#Cc1ccc(NC(=O)CC2CCc3cc(Br)cc4[nH]c(=O)c(=O)n2c34)cc1 (stereo not given) | – | – | 3.8% |
| C[C@H]1Cc2cc(Cl)cc3[nH]c(=O)c(=O)n(c23)C1CC(=O)Nc1ccccc1 (stereo not given in full) | – | 3.1 nM | – |
| O=C(O)CC1CCc2cc(Br)cc3[nH]c(=O)c(=O)n1c23 (stereo not given) | 68.7% | 9.9 nM | – |
| Cc1ccc(NC(=O)CC2CCc3cc(Br)cc4[nH]c(=O)c(=O)n2c34)cc1 (stereo not given) | 83.3% | – | – |
| O=C(CC1CCc2cc(Br)cc3[nH]c(=O)c(=O)n1c23)Nc1ccc([N+](=O)[O-])cc1 (stereo not given) | – | – | 21.5% |
| NC(=O)CC1CCc2cc(Br)cc3[nH]c(=O)c(=O)n1c23 (stereo not given) | 28.9% | – | – |
